Reference: patent publication US20250098680A1 (priority 2022, published 2025)

How the values were obtained:
Phytophthora infestans [1] = type: cell-based; settings: for effective pesticide against Phytophthora infestans (summary in words): summary of in vitro screening; for Bio-activity value Phytophthora infestans: tomato leaf discs, compound dissolved in DMSO, visual score 5 days, % from maximal value
[2] = system: Pseudoperonospora cubensis; experiment: Microplate-based cucumber leaf disc screening against Pseudoperonospora cubensis; type: cell-based
Description: Background: Pseudoperonospora cubensis is an obligatory pathogen from Oomycetes which is very difficult to grow on synthetic medium. Therefore, the bioactivity screening system based on leaf discs prepared from detached cucumber leaves were used.
Summary: dihydroquinidine or dihydroquinine were dissolved in DMSO were added to cucumber leaf discs infected with Pseudoperonospora and the disease progress was monitored by visual inspection.
General description: Inoculation and maintenance on cucumber leaves, preparation of spore suspension, their growth on leaf discs in microplates and inspection by magnifying glass of Pseudoperonospora cubensis severity of infection.
• 1) Grow plants, in the growth room (27° C.), high light radiation. • 2) Use standard garden soil. • 3) Plant cucumber seeds. • 4) Add fertilizer once a week.
• 1) Put 3 (double) pieces of sterile paper in a square Petri dish. • 2) Work in sterile conditions. • 3) Use leaves from healthy plants. The leaves should be young and healthy, their size should fit to the square plate. • 4) Cut the leaves by a sterile scalpel, leaving a long stem. • 5) Add 10 ml sterile distilled water to wet the paper (the paper should be maximally wet, but without additional dripping water), discard excess of water. […]

Phytophthora infestans [3] = type: in vivo, Phytophthora infestans on tomato; settings: tomato seedlings, greenhouse, preventative spraying, Formulation 15 or 16, four independent experiments (FIGS. 1-4)
Cucumber downey mildew = settings: described in JP2003081945A; cited from earlier work

SMILES	effective pesticide against Phytophthora infestans (summary in words) (Phytophthora infestans [1])	Bio-activity value Phytophthora infestans (Phytophthora infestans [1]) [%]	Bio-activity value Pseudoperonospora cubensis ([2]; cucumber leaf discs, compound dissolved in DMSO, visual score 7 days after inoculation, % from maximal value) [%]	effective pesticide against Pseudoperonospora cubensis (summary in words) ([2]; summary of in vitro screening)	efficacy of control of Phytophthora infection (Phytophthora infestans [3])	bioactivity against Cucumber downey mildew (Cucumber downey mildew)
CCC1C[N@]2CC[C@H]1C[C@@H]2C(O)c1ccnc2ccc(OC)cc12 (stereo in doubt) [DIHYDROQUINIDINE, (S)-[(2R,4S,5R)-5-ethyl-1-azabicyclo[2.2.2]octan-2-yl](6-methoxyquinolin-4-yl) methanol]	effective	100	66	effective	up to 89.38%	–
CCC1C[N@]2CC[C@H]1C[C@H]2C(O)c1ccnc2ccc(OC)cc12 (stereo in doubt) [DIHYDROQUININE, (R)-[(2S,4S,5R)-5-ethyl-1-azabicyclo[2.2.2]octan-2-yl](6-methoxyquinolin-4-yl) methanol]	affective	83	–	–	–	–
C=C[C@H]1C[N@@]2CC[C@H]1C[C@H]2[C@H](O)c1ccnc2ccc(OC)cc12 [quinine]	–	–	–	–	–	fungicidal bioactivity
